Test results taken from paper PMC9741287, “Cytotoxic and Luminescent Properties of Novel Organotin Complexes with Chelating Antioxidant Ligand” (Molecules, 2022).
Values joined by “and” are separate entries in the source; they are usually repeats but may differ in a detail not shown here. Identical values can stand only once. Like-named read-outs stand apart in the source and are kept apart here.

Columns and labels:
[1] = test system: A549 (human lung adenocarcinoma); experiment: MTT-test A549; type: cell-based
Experimental: (§1) Since the investigated compounds are designed as theranostic and cytostatic agents, their toxic impact was evaluated as a standard MTT-test. Cytotoxicity was studied on four cell lines, i.e.,—HCT116 (human colorectal carcinoma), MCF-7 (human breast cancer), A549 (human lung adenocarcinoma), and WI-38 (human fetal lung fibroblast). Obtained results appear to be unorthodox: as it is known, the introduction of an organotin moiety tends to noticeably increase compounds’ toxicity and more lipophilic ones do it better, but in the presented data pattern turns vice versa (Table 3).
(§2) HCT-116 (colon carcinoma), MCF-7 (breast adenocarcinoma), A-549 (lung adenocarcinoma) cell lines, and WI-38 (cell line composed of fibroblasts) were derived from The European Collection of Authenticated Cell Cultures (ECACC, Salisbury, UK), cultured in DMEM medium (Gibco™, Dublin, Ireland) supplemented with 10% fetal bovine serum (Gibco™, Brasilia, Brazil). The cells were cultured in an incubator at 37 °C in a humidified 5% CO2 atmosphere and subcultured two times a week.
(§3) The toxicity of compounds was studied on cultured cell lines according to standard MTT protocol.

[2] = test system: WI-38 (human fetal lung fibroblast); experiment: MTT-test WI-38; type: cell-based
Experimental: as §1, §2, §3

[3] = test system: superoxide radical anion O2−• (xanthine-xanthine oxidase system); experiment: NBT-test, superoxide generated in the xanthine-xanthine oxidase system; type: biochemical; conditions: for I (NBT-Test): 0.006 mL of 5 mM compound in DMSO per 0.3 mL well, 600 s, 560 nm, negative = stimulation
Description: Xanthine oxidase is molybdenum containing enzyme responsible for purine catabolism in the human organism. It is capable of xanthine oxidation, resulting in uric acid and superoxide radical anion as a side product. The latter one is well-known ROS, and the ability to neutralize it marks the compound as a perspective antioxidant. This is followed by the interaction of O2^−• and nitro-blue tetrazolium resulting in the cycle opening (Scheme 4), which is accompanied by the color change with λmax = 560 nm and can be monitored spectrophotometrically.
The influence of compounds on superoxide radical anion О2^−• generated in the enzymatic system xanthine-xanthine oxidase was estimated as the amount of nitro-blue tetrazolium (NBT) reduced to formazan. The assay was carried out in 96-well plates. The total volume of a single well was 0.3 mL and consisted of 0.27 mL of carbonate buffer (40 mM, pH 10.0) containing EDTA (0.1 mM), 0.006 mL of xanthine (10 mM) in carbonate buffer, 0.003 mL of 0.5% bovine serum albumin in water, 0.003 mL of NBT chloride (2.5 mM) in water, and 0.006 mL of a solution of the studied compound in DMSO (5 mM). Xanthine oxidase (0.012 mL, 0.004 units) in buffer was added to the mixture at rt to start the reaction and the absorption at λmax = 560 nm was recorded for 600 s. The control experiment was performed in the presence of 0.006 mL DMSO without a compound. All experiments were performed in triplicate.
Inhibition was expressed by the Equation (2):I (%) = (ν0/ν0′) × 100%,(2) where v0 and v0′ are initial rates of the enzymatic reaction in the presence and absence (control) of the compounds under study, respectively.
The initial rate (v0 and v0′) was calculated by the Equation (3):ν0 = ΔС/Δt = ΔA/(Δt × ε) = tgα/(Δt × ε),(3)
A1 is the absorbance in the presence of the testing compound at the end of the reaction (600 s), and A0 is the absorbance of the blank solution. ΔA is the difference between A1 and A0. All experiments were performed in triplicate.

[4] = Luminescence / photophysical properties; type: physicochemical; conditions: for Quantum Yield, DMSO Solution 10 µM / Quantum Yield, DMSO Solution 100 µM / Quantum Yield, DMSO Solution 1000 µM / Quantum Yield, Powders: λex = 365 nm; for ε (λmax): at absorption λmax; for Luminosity (λmax): at λmax; for Quantum Yield, Powders: solid (compound 4 is an oil)
Experimental: Their quantum yields reached 20%, which together with their high absorption (Table 4) makes them highly emissive even in powders.
The registration of luminescence spectra of powders and solutions in the visible range as well as the measurement of quantum yields were carried out with Horiba FluoroMax Plus, with xenon lamp as excitation source at room temperature; excitation was performed through a ligand (λex = 365 nm). The quantum yield was measured by the absolute method in the integrating sphere.

[5] = DPPH-test (radical scavenging); conditions: for Quantity of Reduced DPPH after 20 h: DPPH 0.2 mM + test compound 0.2 mM in EtOH, equal volumes, 517 nm
Description: 2,2-Diphenyl-1-picrylhydrazyl (DPPH)—is a stable N-centered chromophore radical with absorption peak λmax = 517 nm, while its reduced form is pale yellow. Its reduction can be monitored spectrophotometrically and is a well-known and convenient way of evaluating radical scavenging activity. […] This may be caused by the participation not of only the sterically hindered phenolic group in the process of radical scavenging, but salicylic phenolic group and probably hydrazide fragment as well. The abovementioned structural moieties participate in the coordination of tin atoms, and therefore are excluded from the mechanism of antioxidant action of complexes. […] The introduction of tin is known to lower the radical scavenging capacity of corresponding ligands and is estimated as referred previously. The only exception is complex 7, bearing two 2,6-di-tert-butylphenols pendants attached directly to the tin.
The activity of synthesized compounds as radical scavengers was estimated spectrophotometrically at λmax = 517 nm using stable radical 2,2-diphenyl-1-picrylhydrazyl (Sigma-Aldrich) according to the known procedure. The reaction mixture contained DPPH (0.75 mL, 0.2 mM) and a solution of the test compound in EtOH (0.75 mL, 0.2 mM), and was put in 1 cm glass cuvettes. The measurements were carried out for 20 h and the results were calculated using Microsoft Excel 2010. Antioxidant activity was expressed as the percentage of reduced DPPH according to the Equation (1):I (%) = ((A0 − A1)/A0) × 100(1) where A0 is the absorbance of the control 0.1 mM DPPH in EtOH, ε DPPH = 1.15·× 10^4, and A1 is the absorbance of the reaction mixture in the presence of the test compound.

[6] = test system: HCT116 (human colorectal carcinoma); experiment: MTT-test HCT116; type: cell-based
Experimental: as §1, §2, §3

## CCC[CH2][Sn]1([CH2]CCC)[O]C(c2cc(C(C)(C)C)c(O)c(C(C)(C)C)c2)=NN=Cc2ccccc2[O]1 [Compound 4, Bu2SnL]
[1]
  IC50: 14.5 ± 4.5 µM
[2]
  IC50: 10.8 ± 3.5 µM
[3]
  I (NBT-Test): −4.6 ± 1.2%
[4]
  λmax (absorption): 409 nm
  Quantum Yield, DMSO Solution 10 µM: 41 ± 3%
  Quantum Yield, DMSO Solution 100 µM: 67% and 66 ± 2%
  Quantum Yield, DMSO Solution 1000 µM: 36 ± 3%
  ε (λmax): 5950 M⁻¹ cm⁻¹
  Luminosity (λmax): 398,650, (409) M^−1·cm^−1
  Quantum Yield, Powders: 4 ± 3%
  Luminosity (λ = 365 nm): 146,127 M^−1·cm^−1
  ε (λ = 365 nm): 2181 M⁻¹ cm⁻¹
[5]
  Quantity of Reduced DPPH after 20 h: 50.5 ± 2.8%
[6]
  IC50: 10 ± 2.3 µM

## CC(C)(C)c1cc(C2=NN=Cc3ccccc3[O][Sn]([c]3ccccc3)([c]3ccccc3)[O]2)cc(C(C)(C)C)c1O [Compound 6, Ph2SnL]
[1]
  IC50: 20.2 ± 4 µM
[2]
  IC50: 52.6 ± 14.6 µM
[3]
  O2−• scavenging in NBT-test: stimulate O2^−· formation instead of inhibiting it
  I (NBT-Test): −28.0 ± 3.6%
[4]
  λmax (absorption): 393 nm
  Quantum Yield, DMSO Solution 10 µM: 25 ± 2%
  Quantum Yield, DMSO Solution 100 µM: 67 ± 2%
  Quantum Yield, DMSO Solution 1000 µM: 26 ± 2%
  ε (λmax): 13,450 M^−1·cm^−1
  Quantum Yield, Powders: 6 ± 2%
  Luminosity (λ = 365 nm): 333,370 M^−1·cm^−1
  ε (λ = 365 nm): 9010 M⁻¹ cm⁻¹
[5]
  Quantity of Reduced DPPH after 20 h: 47.4 ± 2.7%
[6]
  IC50: 20 ± 11 µM

## CC(C)(C)c1cc(C(=O)N/N=C/c2ccccc2O)cc(C(C)(C)C)c1O [Compound 1, Di-tert-butyl-4-hydroxy-N′-(2-hydroxybenzylidene)-benzohydrazine]
[1]; Homo sapiens, A549
  IC50: 2.2 ± 0.4 µM
[2]; Homo sapiens, WI-38
  IC50: 6.6 ± 1.2 µM
[3]
  I (NBT-Test): 0.5 ± 0.1%
[5]
  EC50: 163 µM
[6]; Homo sapiens, HCT-116
  IC50: 1.7 ± 0.4 µM

## CC(C)(C)c1cc(C2=NN=Cc3ccccc3[O][Sn]([C](C)(C)C)([C](C)(C)C)[O]2)cc(C(C)(C)C)c1O [Compound 5, Bu^t2SnL]
[1]
  IC50: 43 ± 10 µM
[2]
  IC50: 26.3 ± 11.3 µM
[3]
  I (NBT-Test): 5.9 ± 1.5%
[4]
  λmax (absorption): 412 nm
  Quantum Yield, DMSO Solution 10 µM: 20 ± 2%
  Quantum Yield, DMSO Solution 100 µM: 37 ± 1%
  Quantum Yield, DMSO Solution 1000 µM: 29 ± 2%
  ε (λmax): 9920 M⁻¹ cm⁻¹
  Quantum Yield, Powders: 8 ± 1%
  Luminosity (λ = 365 nm): 206,360 M^−1·cm^−1
  ε (λ = 365 nm): 3080 M⁻¹ cm⁻¹
[5]
  Quantity of Reduced DPPH after 20 h: 26.5 ± 1.7%
[6]
  IC50: 34.3 ± 14 µM

## CC(C)(C)c1cc(C2=NN=Cc3ccccc3[O][Sn]([CH3])([CH3])[O]2)cc(C(C)(C)C)c1O [Compound 2, Me2SnL]
[1]
  IC50: 2.2 ± 0.7 µM
[2]
  IC50: 9.5 ± 3.1 µM
[3]
  I (NBT-Test): 6.3 ± 1.8%
[4]
  λmax (absorption): 403 nm
  Quantum Yield, DMSO Solution 10 µM: 17 ± 3%
  Quantum Yield, DMSO Solution 100 µM: 56 ± 1%
  Quantum Yield, DMSO Solution 1000 µM: 39% and 39 ± 3%
  ε (λmax): 13,070 M^−1·cm^−1
  Luminosity (λmax): 771,130, (403) M^−1·cm^−1
  Quantum Yield, Powders: 14 ± 2%
  Luminosity (λ = 365 nm): 508,403 M^−1·cm^−1
  ε (λ = 365 nm): 8617 M⁻¹ cm⁻¹
[5]
  Quantity of Reduced DPPH after 20 h: 35.2 ± 1.9%
[6]
  IC50: 2.4 ± 0.8 µM

## CC(C)(C)c1cc(C2=NN=Cc3ccccc3[O][Sn]([c]3cc(C(C)(C)C)c(O)c(C(C)(C)C)c3)([c]3cc(C(C)(C)C)c(O)c(C(C)(C)C)c3)[O]2)cc(C(C)(C)C)c1O [Compound 7, (2,6-Di-tert-butylphenol)2SnL]
[1]
  IC50: 31.9 ± 5.7 µM
[2]
  IC50: 10.6 ± 3.5 µM
[3]
  O2−• scavenging in NBT-test: stimulate O2^−· formation instead of inhibiting it
  I (NBT-Test): −40.5 ± 4.2%
[4]
  λmax (absorption): 402 nm
  Quantum Yield, DMSO Solution 10 µM: 21 ± 2%
  Quantum Yield, DMSO Solution 100 µM: 42 ± 1%
  Quantum Yield, DMSO Solution 1000 µM: 32 ± 2%
  ε (λmax): 13,270 M^−1·cm^−1
  Luminosity (λmax): 557,340, (402) M^−1·cm^−1
  Quantum Yield, Powders: 20% and 20 ± 2%
  Luminosity (λ = 365 nm): 294,084 M^−1·cm^−1
  ε (λ = 365 nm): 7002 M⁻¹ cm⁻¹
[5]
  EC50: 12.8 µM
[6]
  IC50: 20.5 ± 6.4 µM

## C[CH2][Sn]1([CH2]C)[O]C(c2cc(C(C)(C)C)c(O)c(C(C)(C)C)c2)=NN=Cc2ccccc2[O]1 [Compound 3, Et2SnL]
[1]
  IC50: 1.5 ± 0.5 µM
[2]
  IC50: 5.8 ± 1.5 µM
[3]
  I (NBT-Test): 7.3 ± 2.0%
[4]
  λmax (absorption): 410 nm
  Quantum Yield, DMSO Solution 10 µM: 17 ± 2%
  Quantum Yield, DMSO Solution 100 µM: 45 ± 1%
  Quantum Yield, DMSO Solution 1000 µM: 30 ± 2%
  ε (λmax): 14,020 M^−1·cm^−1
  Luminosity (λmax): 658,940, (410) M^−1·cm^−1
  Quantum Yield, Powders: 14 ± 2%
  Luminosity (λ = 365 nm): 210,983 M^−1·cm^−1
  ε (λ = 365 nm): 4489 M⁻¹ cm⁻¹
[5]
  Quantity of Reduced DPPH after 20 h: 41.3 ± 2.1%
[6]
  IC50: 1.4 ± 0.5 µM
